Active and inactive are the calls of the source. No cut-off for these calls is given here.
How the values were obtained:
KYSE-510 = assay: Antitumor activity against KYSE510 cell line after 96 hrs using crystal violet; format: functional; conditions: Homo sapiens, KYSE-510, 96 h
UO-31 = assay: Antitumor activity against UO31 cell line; format: functional, cell-based; conditions: Homo sapiens
SF-539 = assay: Antitumor activity against SF539 cell line; format: functional, cell-based; conditions: Homo sapiens
CCRF-CEM = assay: Antitumor activity against CCRF-CEM cell line; format: functional, cell-based; conditions: Homo sapiens
HL-60 = assay: Antitumor activity against HL60(TB) cell line; format: functional, cell-based; conditions: Homo sapiens
5637 = assay: Antitumor activity against 5637 cell line after 96 hrs using crystal violet; format: functional; conditions: Homo sapiens, 5637, 96 h
LOX IMVI = assay: Antitumor activity against LOXIMVI cell line; format: functional, cell-based; conditions: Homo sapiens
ACHN = assay: Antitumor activity against ACHN cell line; format: functional, cell-based; conditions: Homo sapiens
SR = assay: Antitumor activity against SR cell line; format: functional, cell-based; conditions: Homo sapiens
RXF 393 = assay: Antitumor activity against RXF393 cell line; format: functional, cell-based; conditions: Homo sapiens
SK-OV-3 = assay: Antitumor activity against SKOV3 cell line; format: functional, cell-based; conditions: Homo sapiens
RPMI-8226 = assay: Antitumor activity against RPMI8226 cell line; format: functional, cell-based; conditions: Homo sapiens
HOP-92 = assay: Antitumor activity against HOP92 cell line; format: functional, cell-based; conditions: Homo sapiens

| Compound | GI50 (KYSE-510) [µM] | further results |
| --- | --- | --- |
| COc1ccc(OC)c(S(=O)(=O)NC2=NCCN2C(=S)SN2CCn3c2nsc3=S)c1 | ≥ 20 | – |
| CC(=O)Nc1ccc(S(=O)(=O)NC2=NCCN2C(=S)SN2CCn3c2nsc3=S)cc1 | ≥ 20 | – |
| O=S(=O)(NC1=NCCN1C(=S)SN1CCn2c1nsc2=S)c1ccc(Cl)cc1 | ≥ 20 | Activity (UO-31): Active; Activity (SF-539): Active |
| O=S(=O)(NC1=NCCN1C(=S)SN1CCn2c1nsc2=S)c1ccccc1Cl | ≥ 20 | Activity (CCRF-CEM): Active; Activity (HL-60): Active |
| O=[N+]([O-])c1ccc(S(=O)(=O)NC2=NCCN2C(=S)SN2CCn3c2nsc3=S)cc1 | ≥ 20 | GI50 5637: 3.67 µM |
| Cc1cc(C)c(S(=O)(=O)NC2=NCCN2C(=S)SN2CCn3c2nsc3=S)c(C)c1 | ≥ 20 | – |
| O=S(=O)(NC1=NCCN1C(=S)SN1CCn2c1nsc2=S)c1ccc(F)c(Cl)c1 | ≥ 20 | – |
| O=S(=O)(NC1=NCCN1C(=S)SN1CCn2c1nsc2=S)c1ccc(C(F)(F)F)cc1 | ≥ 20 | – |
| COc1cccc(S(=O)(=O)NC2=NCCN2C(=S)SN2CCn3c2nsc3=S)c1 | ≥ 20 | Activity (LOX IMVI): Active; Activity (ACHN): Active |
| O=S(=O)(NC1=NCCN1C(=S)SN1CCn2c1nsc2=S)c1ccc(OC(F)(F)F)cc1 | ≥ 20 | Activity (SR): Active; Activity (SF-539): Active |
| O=S(=O)(NC1=NCCN1C(=S)SN1CCn2c1nsc2=S)c1cc(Cl)cc(Cl)c1 | ≥ 20 | – |
| COc1ccc(S(=O)(=O)NC2=NCCN2C(=S)SN2CCn3c2nsc3=S)cc1 | ≥ 20 | Activity (UO-31): Active; Activity (RXF 393): Active |
| Cc1ccc(S(=O)(=O)NC2=NCCN2C(=S)SN2CCn3c2nsc3=S)cc1 | ≥ 20 | Activity (SK-OV-3): Active; Activity (LOX IMVI): Active |
| O=S(=O)(NC1=NCCN1C(=S)SN1CCn2c1nsc2=S)c1ccccc1 | ≥ 20 | – |
| COc1ccc(S(=O)(=O)NC2=NCCN2C(=S)SN2CCn3c2nsc3=S)cc1OC | ≥ 20 | Activity (RXF 393): Active |
| O=S(=O)(NC1=NCCN1C(=S)SN1CCn2c1nsc2=S)c1ccc(-c2ccccc2)cc1 | ≥ 20 | – |
| O=S(=O)(NC1=NCCN1C(=S)SN1CCn2c1nsc2=S)c1ccc(Cl)c(Cl)c1Cl | ≥ 20 | – |
| COc1cc(C)ccc1S(=O)(=O)NC1=NCCN1C(=S)SN1CCn2c1nsc2=S | ≥ 20 | – |
| O=S(=O)(NC1=NCCN1C(=S)SN1CCn2c1nsc2=S)c1ccc(Br)cc1 | ≥ 20 | Activity (RPMI-8226): Active; Activity (HOP-92): Active |
| O=S(=O)(NC1=NCCN1C(=S)SN1CCn2c1nsc2=S)c1cccc2ccccc12 | ≥ 20 | Activity (CCRF-CEM): Active; Activity (RPMI-8226): Active |
| O=S(=O)(NC1=NCCN1C(=S)SN1CCn2c1nsc2=S)c1cccc(Cl)c1 | ≥ 20 | Activity (RXF 393): Active; Activity (CCRF-CEM): Active |
| O=S(=O)(NC1=NCCN1C(=S)SN1CCn2c1nsc2=S)c1ccc(Oc2ccccc2)cc1 | ≥ 20 | Activity (SR): Active; Activity (HL-60): Active |
| O=S(=O)(NC1=NCCN1C(=S)SN1CCn2c1nsc2=S)c1ccc2ccccc2c1 | ≥ 20 | – |
| O=S(=O)(NC1=NCCN1C(=S)SN1CCn2c1nsc2=S)c1cccc(OC(F)(F)F)c1 | ≥ 20 | Activity (CCRF-CEM): Active; Activity (RPMI-8226): Active |
| O=S(=O)(NC1=NCCN1C(=S)SN1CCn2c1nsc2=S)c1ccc(Cl)cc1Cl | ≥ 20 | – |
| O=S(=O)(NC1=NCCN1C(=S)SN1CCn2c1nsc2=S)c1ccc(Cl)c(Cl)c1 | ≥ 20 | – |

— ChEMBL document CHEMBL1138956, “Synthesis and in vitro anti-tumor activity of N-{1-[(3-thioxo-5,6-dihydroimidazo[2,1-c][1,2,4]thiadiazol-7-ylthio)thiocarbonyl]-2-imidazolidene}arylsulfonamides” (2006)
